We go through 5 compounds from ChEMBL document CHEMBL1121493, “Folate analogues altered in the C9-N10 bridge region. 16. Synthesis and antifolate activity of 11-thiohomoaminopterin” (J Med Chem, 1980).

In brackets after ≈: the same amount, converted by molar mass.

Usually inhibition stands for the share of the control response that was lost under treatment. A low value points to little suppression.

Experiment [1] concerns the target T1, Dihydrofolate reductase (Homo sapiens, UniProt P00374).
T1 sequence (P00374 whole entry): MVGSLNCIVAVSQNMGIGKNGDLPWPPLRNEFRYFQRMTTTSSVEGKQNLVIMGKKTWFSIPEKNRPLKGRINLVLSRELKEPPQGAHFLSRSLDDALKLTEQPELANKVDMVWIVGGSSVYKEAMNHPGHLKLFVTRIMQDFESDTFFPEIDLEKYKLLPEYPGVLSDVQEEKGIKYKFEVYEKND
Kind of experiment: Ability to inhibit human HeLa cell dihydrofolate reductase in vitro was determined.

The test system of experiment [2] is Lacticaseibacillus casei. Nature of the experiment: (§1) The compound was tested for inhibition of growth of Lactobacillus casei (ATCC 7469) at 0.1 ng/ml. The format is functional, organism-based. As to conditions: read-out: I 50.
For experiment [3], the system named is Enterococcus faecium. Kind of experiment: The compound was tested for inhibition of growth of Streptococcus faecium (ATCC 8043) at 0.1 ng/ml. Type of experiment: functional, organism-based. As to conditions: read-out: I 50.
Experiment [4] deals with Lacticaseibacillus casei. Nature of the experiment: The compound was tested for inhibition of growth of Lactobacillus casei at 0.1 ng/ml (ATCC 7469). As to conditions: read-out: I 50. Type of experiment: functional, organism-based.
The target in experiment [5] is Dihydrofolate reductase (Lactobacillus casei, UniProt P00381). Kind of experiment: Ability to inhibit Lactobacillus casei dihydrofolate reductase in vitro was determined.
The target in experiment [6] is Reduced folate carrier (Homo sapiens). Nature of the experiment: Ability to compete with methotrexate transport in human HeLa cells was determined. As to conditions: read-out: I50.
The test system of experiment [7] is Enterococcus faecium. Kind of experiment: The compound was tested for inhibition of growth of Streptococcus faecium (ATCC 8043) at 2.0 ng/ml. The format is functional.
Another experiment concerns the target T2, Thymidylate synthase (Lactobacillus casei, UniProt P00469).
T2 sequence (P00469 whole entry): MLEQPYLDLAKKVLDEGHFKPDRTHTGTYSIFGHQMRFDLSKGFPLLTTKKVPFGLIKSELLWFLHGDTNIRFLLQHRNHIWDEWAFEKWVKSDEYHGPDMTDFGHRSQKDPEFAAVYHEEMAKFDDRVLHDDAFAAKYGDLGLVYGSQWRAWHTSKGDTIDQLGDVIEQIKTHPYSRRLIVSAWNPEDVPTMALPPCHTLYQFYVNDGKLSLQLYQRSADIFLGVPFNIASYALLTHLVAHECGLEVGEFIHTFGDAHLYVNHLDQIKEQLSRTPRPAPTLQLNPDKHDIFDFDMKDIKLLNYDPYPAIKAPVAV
Nature of the experiment: Ability to inhibit Lactobacillus casei thymidylate synthase in vitro was determined. Also noted: species or system Lacticaseibacillus casei. The following applies: read-out: I50.

Experiment [8] relates to Lacticaseibacillus casei. The description is as §1. The format is functional.
Experiment [9] deals with Reduced folate carrier (Homo sapiens). Nature of the experiment: Ability to compete with methotrexate transport in human HeLa cells was determined. The following applies: read-out: I50. This is another data set of the same source.

Dihydrofolate reductase (Lactobacillus casei, UniProt P00381), sequence (P00381 whole entry): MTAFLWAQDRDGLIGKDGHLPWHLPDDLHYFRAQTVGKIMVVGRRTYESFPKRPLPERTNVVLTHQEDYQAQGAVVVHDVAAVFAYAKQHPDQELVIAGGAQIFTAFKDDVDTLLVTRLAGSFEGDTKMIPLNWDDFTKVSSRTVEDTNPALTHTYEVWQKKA

`Nc1nc(N)c2nc(COc3ccc(C(=O)NC(CCC(=O)O)C(=O)O)cc3)cnc2n1` (stereo unspecified): the IC50 against Dihydrofolate reductase [1] is 740 nM.
Regarding `Nc1nc(N)c2nc(CCSc3ccc(C(=O)O)cc3)cnc2n1`, the IC50 in the experiment with Lacticaseibacillus casei [2] and in the experiment with Enterococcus faecium [3] was 0.1 µg/mL (≈ 0.292 µM) throughout.
Consider `COC(=O)c1ccc(SCCc2cnc3nc(N)nc(N)c3n2)cc1`, for which the IC50 with Enterococcus faecium [3] was determined as 0.016 µg/mL (≈ 0.0449 µM); with Lacticaseibacillus casei [4], 0.4 µg/mL (≈ 1.12 µM).
On to `Nc1nc(N)c2nc(CCSc3ccc(C(=O)NC(CCC(=O)O)C(=O)O)cc3)cnc2n1` (stereo unspecified), for which the IC50 was determined as 400 nM on Dihydrofolate reductase [5], 25000 nM in experiment [6] and 60000 nM at Thymidylate synthase. In the experiment with Enterococcus faecium [7], testing at 0.002 µg/mL gave an inhibition of 50%. This compound also registered an inhibition at 0.0001 µg/mL in the experiment with Lacticaseibacillus casei [8] of 50%.
As to `Nc1nc(N)c2nc(CSc3ccc(C(=O)NC(CCC(=O)O)C(=O)O)cc3)cnc2n1` (stereo unspecified), the IC50 in experiment [9] came out at 2700 nM.
